Results: PubChem BioAssay (NCI)
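Five compound concentrations were applied to cells in 96-well plates for 48 hours; endpoints were derived by simple linear interpolation of the resulting dose-response curve. TGI denotes the concentration required for complete inhibition of growth.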

Experiments:
Assay in all cases: DTP human tumour cell line panel, 48 h
TK-10 renal = system: TK-10 renal
MALME-3M melanoma = system: MALME-3M melanoma
SF-539 CNS = system: SF-539 CNS
SN12C renal = system: SN12C renal
HS 578T breast = system: HS 578T breast
NCI-H226 lung = system: NCI-H226 lung
KM12 colon = system: KM12 colon
MDA-N = system: MDA-N
LOX IMVI melanoma = system: LOX IMVI melanoma
SR leukemia = system: SR leukemia
ACHN renal = system: ACHN renal
OVCAR-4 ovarian = system: OVCAR-4 ovarian
UO-31 renal = system: UO-31 renal
NCI-H23 lung = system: NCI-H23 lung
SK-OV-3 ovarian = system: SK-OV-3 ovarian
M14 melanoma = system: M14 melanoma
MDA-MB-231 breast = system: MDA-MB-231 breast
K-562 leukemia = system: K-562 leukemia
UACC-257 melanoma = system: UACC-257 melanoma
UACC-62 melanoma = system: UACC-62 melanoma
786-0 renal = system: 786-0 renal
HOP-62 NSCLC = system: HOP-62 NSCLC
SF-268 CNS = system: SF-268 CNS
IGROV1 ovarian = system: IGROV1 ovarian
BT-549 breast = system: BT-549 breast
PC-3 prostate = system: PC-3 prostate
HL-60(TB) leukemia = system: HL-60(TB) leukemia
HT29 colon = system: HT29 colon
SF-295 CNS = system: SF-295 CNS
HCT-15 colon = system: HCT-15 colon
EKVX NSCLC = system: EKVX NSCLC
MCF7 breast = system: MCF7 breast
U251 CNS = system: U251 CNS
MDA-MB-435 = system: MDA-MB-435
NCI-H522 lung = system: NCI-H522 lung
NCI/ADR-RES ovarian = system: NCI/ADR-RES ovarian
OVCAR-3 ovarian = system: OVCAR-3 ovarian
SK-MEL-28 melanoma = system: SK-MEL-28 melanoma
CAKI-1 renal = system: CAKI-1 renal
OVCAR-8 ovarian = system: OVCAR-8 ovarian
OVCAR-5 ovarian = system: OVCAR-5 ovarian
SK-MEL-2 melanoma = system: SK-MEL-2 melanoma
NCI-H460 lung = system: NCI-H460 lung
HOP-92 NSCLC = system: HOP-92 NSCLC
A549 NSCLC = system: A549 NSCLC
RXF 393 renal = system: RXF 393 renal
SK-MEL-5 melanoma = system: SK-MEL-5 melanoma
SW-620 colon = system: SW-620 colon
SNB-19 CNS = system: SNB-19 CNS
A498 renal = system: A498 renal
T-47D breast = system: T-47D breast
DU-145 prostate = system: DU-145 prostate
HCT-116 colon = system: HCT-116 colon
MOLT-4 leukemia = system: MOLT-4 leukemia
RPMI-8226 leukemia = system: RPMI-8226 leukemia
CCRF-CEM leukemia = system: CCRF-CEM leukemia
COLO 205 colon = system: COLO 205 colon
SNB-75 CNS = system: SNB-75 CNS

Cc1ccc2c(C(=O)c3c(C)n(CCN4CCOCC4)c4ccccc34)cccc2c1
TGI (TK-10 renal): 55.6 µM
TGI (MALME-3M melanoma): 37.6 µM
TGI (SF-539 CNS): 12.8 µM
TGI (SN12C renal): > 100 µM
TGI (HS 578T breast): 25.6 µM
TGI (NCI-H226 lung): 19.9 µM
TGI (KM12 colon): 57.7 µM
TGI (MDA-N): 84.8 µM
TGI (LOX IMVI melanoma): 42.1 µM
TGI (SR leukemia): > 100 µM
TGI (ACHN renal): 88.4 µM
TGI (OVCAR-4 ovarian): 61.1 µM
TGI (UO-31 renal): > 100 µM
TGI (NCI-H23 lung): > 100 µM
TGI (SK-OV-3 ovarian): 61 µM
TGI (M14 melanoma): 62 µM
TGI (MDA-MB-231 breast): 47.9 µM
TGI (K-562 leukemia): > 100 µM
TGI (UACC-257 melanoma): 69.4 µM
TGI (UACC-62 melanoma): 45.2 µM
TGI (786-0 renal): 49 µM
TGI (HOP-62 NSCLC): 99.6 µM
TGI (SF-268 CNS): 33.8 µM
TGI (IGROV1 ovarian): > 100 µM
TGI (BT-549 breast): 51.6 µM
TGI (PC-3 prostate): 43.2 µM
TGI (HL-60(TB) leukemia): 10.4 µM
TGI (HT29 colon): 25.6 µM
TGI (SF-295 CNS): 37.1 µM
TGI (HCT-15 colon): 35.4 µM
TGI (EKVX NSCLC): 63.3 µM
TGI (MCF7 breast): 16.8 µM
TGI (U251 CNS): 41 µM
TGI (MDA-MB-435): 5.42 µM
TGI (NCI-H522 lung): 29.3 µM
TGI (NCI/ADR-RES ovarian): 43.1 µM
TGI (OVCAR-3 ovarian): 12.4 µM
TGI (SK-MEL-28 melanoma): > 100 µM
TGI (CAKI-1 renal): > 100 µM
TGI (OVCAR-8 ovarian): 56.1 µM
TGI (OVCAR-5 ovarian): 96.6 µM
TGI (SK-MEL-2 melanoma): 42.4 µM
TGI (NCI-H460 lung): 89.3 µM
TGI (HOP-92 NSCLC): 73.1 µM
TGI (A549 NSCLC): > 100 µM
TGI (RXF 393 renal): 54.6 µM
TGI (SK-MEL-5 melanoma): 13 µM
TGI (SW-620 colon): 16.5 µM
TGI (SNB-19 CNS): > 100 µM
TGI (A498 renal): > 100 µM
TGI (T-47D breast): > 100 µM
TGI (DU-145 prostate): 94.3 µM
TGI (HCT-116 colon): 40.9 µM
TGI (MOLT-4 leukemia): 36.3 µM
TGI (RPMI-8226 leukemia): 18.6 µM
TGI (CCRF-CEM leukemia): 13 µM

Cc1ccc(S(=O)(=O)N/N=C2/CCC(C(C)(C)C)CC2Br)cc1 (configuration not stated)
TGI (TK-10 renal): > 100 µM
TGI (MALME-3M melanoma): 31.2 µM
TGI (SF-539 CNS): 50.4 µM
TGI (SN12C renal): 32.4 µM
TGI (HS 578T breast): 47.1 µM
TGI (NCI-H226 lung): 34 µM
TGI (KM12 colon): 47 µM
TGI (MDA-N): > 100 µM
TGI (LOX IMVI melanoma): 30.5 µM
TGI (SR leukemia): > 100 µM
TGI (ACHN renal): > 100 µM
TGI (OVCAR-4 ovarian): 33.6 µM
TGI (UO-31 renal): 33.4 µM
TGI (NCI-H23 lung): > 100 µM
TGI (SK-OV-3 ovarian): > 100 µM
TGI (M14 melanoma): 35.4 µM
TGI (MDA-MB-231 breast): > 100 µM
TGI (K-562 leukemia): 40.1 µM
TGI (UACC-257 melanoma): > 100 µM
TGI (786-0 renal): 99.4 µM
TGI (HOP-62 NSCLC): > 100 µM
TGI (SF-268 CNS): > 100 µM
TGI (IGROV1 ovarian): > 100 µM
TGI (BT-549 breast): 75.1 µM
TGI (PC-3 prostate): 86.5 µM
TGI (HL-60(TB) leukemia): > 100 µM
TGI (HT29 colon): 88.9 µM
TGI (SF-295 CNS): > 100 µM
TGI (HCT-15 colon): > 100 µM
TGI (EKVX NSCLC): > 100 µM
TGI (MCF7 breast): 51.9 µM
TGI (U251 CNS): 21.1 µM
TGI (MDA-MB-435): 51.8 µM
TGI (NCI-H522 lung): 35.3 µM
TGI (NCI/ADR-RES ovarian): 36.5 µM
TGI (OVCAR-3 ovarian): 48.9 µM
TGI (SK-MEL-28 melanoma): 54.5 µM
TGI (CAKI-1 renal): 69.1 µM
TGI (OVCAR-8 ovarian): > 100 µM
TGI (OVCAR-5 ovarian): 43.6 µM
TGI (SK-MEL-2 melanoma): 28.1 µM
TGI (NCI-H460 lung): > 100 µM
TGI (HOP-92 NSCLC): 72.3 µM
TGI (A549 NSCLC): > 100 µM
TGI (SK-MEL-5 melanoma): 29.5 µM
TGI (SW-620 colon): 53.1 µM
TGI (SNB-19 CNS): > 100 µM
TGI (A498 renal): > 100 µM
TGI (COLO 205 colon): > 100 µM
TGI (SNB-75 CNS): 87 µM
TGI (T-47D breast): > 100 µM
TGI (DU-145 prostate): > 100 µM
TGI (HCT-116 colon): 51.5 µM
TGI (MOLT-4 leukemia): 49.3 µM
TGI (RPMI-8226 leukemia): 82.3 µM
TGI (CCRF-CEM leukemia): 64.2 µM
